From patent US12195427B2, “MASP-2 inhibitors and methods of use” (priority 2018, dated 2025)

Target: MASP-2 CCP2-SP (Homo sapiens (Human), UniProt O00187)
Assay: MASP-2 co-crystallization, X-ray crystallography and structure analysis (H-bonds, van der Waals contacts);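 for Ligand-pharmacophore element distance, pharmacophore element C2: distance from averaged pharmacophore element to bound ligand; missing value means element absent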;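 for Ligand-pharmacophore element distance, pharmacophore element C3: distance from averaged pharmacophore element to bound ligand; missing value means element absent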;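 for Ligand-pharmacophore element distance, pharmacophore element C4: distance from averaged pharmacophore element to bound ligand; missing value means element absent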;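 for Ligand-pharmacophore element distance, pharmacophore element C5: distance from averaged pharmacophore element to bound ligand; missing value means element absent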
Design: van der Waals contact distance, MASP-2 HIS 483 atom CD2 / van der Waals contact distance, MASP-2 HIS 483 atom NE2 / van der Waals contact distance, SER 654 C to compound atom / van der Waals contact distance, SER 654 O to compound atom / van der Waals contact distance, TRP 655 C to compound atom / van der Waals contact distance, MASP-2 GLY 528 atom CA / van der Waals contact distance TRP 655 atom CZ3 / van der Waals contact distance TRP 655 atom N / van der Waals contact distance TRP 655 atom CE3 / van der Waals contact distance GLY 656 atom C / van der Waals contact distance GLY 656 atom CA / van der Waals contact distance GLY 656 atom O / van der Waals contact distance, MASP-2 TYR 607 atom CD1 / van der Waals contact distance, MASP-2 PRO 606 atom O / d(C3,CA1) / d(CA1,N1)2 / d(H4,O1) / d(H4,O2) / d(O1,O2) / d(CA1,O2) / d(CA6,O1) / d(CA6,O2) / d(CA1,C5) / d(O2,H3) / d(N2,C2) / d(CA5,N2) / d(N2,C4) / d(N2,C6) / d(N2,CA3) / d(N2,O3) / d(O4,H2): unit not given beside the values
Settings: for Ligand-pharmacophore element distance, pharmacophore element C2 / Ligand-pharmacophore element distance, pharmacophore element C3 / Ligand-pharmacophore element distance, pharmacophore element C4 / Ligand-pharmacophore element distance, pharmacophore element C5 / Ligand-pharmacophore element distance, pharmacophore element C6 / Ligand-pharmacophore element distance, pharmacophore element C7 / Ligand-pharmacophore element distance, pharmacophore element CA1 / Ligand-pharmacophore element distance, pharmacophore element CA2 / Ligand-pharmacophore element distance, pharmacophore element CA3 / Ligand-pharmacophore element distance, pharmacophore element CA4 / Ligand-pharmacophore element distance, pharmacophore element CA5 / Ligand-pharmacophore element distance, pharmacophore element CA6: Table A4-1
Method in brief: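 Human MASP-2 CCP2-SP, untagged or 6His-tagged, was expressed in E. coli and crystallized. Crystals were soaked with inhibitor in crystallization solution, flash-cooled in liquid nitrogen, and diffracted with synchrotron X-rays (wavelength 1.0). Structures were solved by molecular replacement from 1Q3X and partially refined.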

[1] = Table A5-1 pharmacophore: distance between elements, S2/S1 region
[2] = Table A5-2 pharmacophore distance, S3/S4 region
[3] = Table A7-1, between pharmacophore elements of the bound compound
[4] = Table A7-2, between pharmacophore elements of the bound compound
[5] = Table A8-6, nearest protein atom in cell to the left

Chain of MASP-2 CCP2-SP (O00187 445-686): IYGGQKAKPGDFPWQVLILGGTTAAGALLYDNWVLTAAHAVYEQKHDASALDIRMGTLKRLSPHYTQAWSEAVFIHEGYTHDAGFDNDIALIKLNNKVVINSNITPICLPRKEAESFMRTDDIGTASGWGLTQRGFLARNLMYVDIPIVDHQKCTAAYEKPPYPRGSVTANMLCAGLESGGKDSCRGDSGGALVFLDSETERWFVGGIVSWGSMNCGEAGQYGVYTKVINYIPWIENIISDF
Chain of MASP-2 CCP2-SP (O00187 364-432 partner): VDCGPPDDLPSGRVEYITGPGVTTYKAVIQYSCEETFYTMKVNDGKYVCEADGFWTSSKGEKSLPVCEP

Compound: CC(NC(=O)C1CC(Cc2ccccc2)CN1)C(=O)NCc1cnc2c(c1)c(Cl)cn2C.Cl.Cl (stereo not shown) [1450_B]
- Ligand-pharmacophore element distance, pharmacophore element C2: 0
- Ligand-pharmacophore element distance, pharmacophore element C3: 0
- Ligand-pharmacophore element distance, pharmacophore element C4: 0
- Ligand-pharmacophore element distance, pharmacophore element C5: 1.67
- Ligand-pharmacophore element distance, pharmacophore element C6: 0
- Ligand-pharmacophore element distance, pharmacophore element C7: 1.3
- Ligand-pharmacophore element distance, pharmacophore element CA1: 0.94
- Ligand-pharmacophore element distance, pharmacophore element CA2: 1.24
- Ligand-pharmacophore element distance, pharmacophore element CA3: 0
- Ligand-pharmacophore element distance, pharmacophore element CA4: 0
- Ligand-pharmacophore element distance, pharmacophore element CA5: 0
- Ligand-pharmacophore element distance, pharmacophore element CA6: 0
- d(CA1,C5) [1]: 3.41
- d(CA1,O1) [1]: 5.49
- d(CA1,O2) [1]: 4.57
- d(CA1,O4) [1]: 1.74
- d(H4,O1) [1]: 3.14
- d(H4,O2) [1]: 3.46
- d(O1,O2) [1]: 3.83
- d(N2,CA2) [2]: 6.07
- d(O2,H3) [2]: 2.32
- d(O2,N2) [2]: 2.67
- a(C5, CA1, O1) (Table A6-1 pharmacophore angle): 150.20
- a(CA1, O1, O2) (Table A6-1 pharmacophore angle): 98.92
- a(O1, CA1, C7) (Table A6-1 pharmacophore angle): 139.92
- a(O1, CA1, O4) (Table A6-1 pharmacophore angle): 66.73
- a(O1, O2, H4) (Table A6-1 pharmacophore angle): 109.15
- a(O1, O2, H3) (Table A6-2 pharmacophore angle): 123.50
- a(O1, O2, N2) (Table A6-2 pharmacophore angle): 138.89
- a(O2, N2, CA2) (Table A6-2 pharmacophore angle): 155.81
- Pharmacophore torsion angle a(C5, CA1, O1, H4) [3]: 13.21
- Pharmacophore torsion angle a(C7, CA1, O1, H4) [3]: −150.35
- Pharmacophore torsion angle a(H4, O1, O2, H3) [3]: −176.95
- Pharmacophore torsion angle a(H4, O1, O2, N2) [3]: 177.59
- Pharmacophore torsion angle a(O1, H4, O2, CA1) [3]: −91.88
- Pharmacophore torsion angle a(O1, O2, N2, CA2) [4]: 137.59

Compound: C[C@H](NC(=O)[C@@H](CCc1ccccc1)NCc1ccc(C(=O)N2CCOCC2)cc1)C(=O)NCc1ccc(C(=N)N)cc1.Cl.Cl [1153_B]
- Ligand-pharmacophore element distance, pharmacophore element C2: 10.14
- Ligand-pharmacophore element distance, pharmacophore element C3: 0
- Ligand-pharmacophore element distance, pharmacophore element C4: 0
- Ligand-pharmacophore element distance, pharmacophore element C5: 0
- Ligand-pharmacophore element distance, pharmacophore element C6: 0
- Ligand-pharmacophore element distance, pharmacophore element C7: 0
- Ligand-pharmacophore element distance, pharmacophore element CA1: 0.39
- Ligand-pharmacophore element distance, pharmacophore element CA2: 0.58
- Ligand-pharmacophore element distance, pharmacophore element CA3: 0
- Ligand-pharmacophore element distance, pharmacophore element CA4: 0
- Ligand-pharmacophore element distance, pharmacophore element CA5: 6.17
- Ligand-pharmacophore element distance, pharmacophore element CA6: 0
- d(CA1,N1) [1]: 3.54
- d(CA1,O1) [1]: 5.51
- d(CA1,O2) [1]: 8.18
- d(H4,O1) [1]: 5.77
- d(H4,O2) [1]: 7.90
- d(O1,O2) [1]: 9.57
- d(CA5,N2) [2]: 3.75
- d(N2,C2) [2]: 8.53
- d(N2,CA2) [2]: 5.06
- d(N2,O3) [2]: 9.72
- d(O2,H3) [2]: 3.10
- d(O2,N2) [2]: 2.99
- a(CA1, O1, O2) (Table A6-1 pharmacophore angle): 144.91
- a(O1, O2, H4) (Table A6-1 pharmacophore angle): 92.62
- A(N1, CA1, O1) a) (Table A6-1 pharmacophore angle, all compounds with protonatable center N1 except Methyl-amino-pyridine): 171.50
- a(O1, O2, H3) (Table A6-2 pharmacophore angle): 25.95
- a(O1, O2, N2) (Table A6-2 pharmacophore angle): 44.76
- a(O2, N2, C2) (Table A6-2 pharmacophore angle): 163.28
- a(O2, N2, CA2) (Table A6-2 pharmacophore angle): 150.51
- a(O2, N2, O3) (Table A6-2 pharmacophore angle): 165.3
- Pharmacophore torsion angle a(H4, O1, O2, H3) [3]: 70.64
- Pharmacophore torsion angle a(H4, O1, O2, N2) [3]: 133.70
- Pharmacophore torsion angle a(N1, CA1, O2, H4) [3]: 56.56
- Pharmacophore torsion angle a(O1, H4, O2, CA1) [3]: 23.08
- Pharmacophore torsion angle a(O1, O2, N2, C2) [3]: −139.94
- Pharmacophore torsion angle a(O1, O2, N2, CA2) [4]: 76.90
- Pharmacophore torsion angle a(O1, O2, N2, CA5) [4]: −161.98
- Pharmacophore torsion angle a(O1, O2, N2, O3) [4]: −144.09
- Pharmacophore protein distance to MET_658 (first MET_658 column) (Table A8-6, 6th residue column, nearest protein atom in cell to the left): 2.53
- Pharmacophore protein distance to MET_658 (second MET_658 column) (Table A8-6, 9th residue column, nearest protein atom in cell to the left): 3.26
- Pharmacophore protein distance to GLY_528 [5]: 3.41
- Pharmacophore protein distance to PHE_529 [5]: 3.23
- Pharmacophore protein distance to PRO_608 [5]: 4.41
- Pharmacophore protein distance to SER_611 [5]: 2.46
- Pharmacophore protein distance to TRP_655 (Table A8-6, pharmacophore elements C6, CA3, O3, H1, nearest protein atom in cell to the left): 3.42

Compound: C[C@H](NC(=O)[C@H]1C[C@@H](c2ccccc2)CCN1)C(=O)NCc1ccc(N)nc1 (stereo in doubt) [compound 1025]
- H-bond distance to MASP-2 ASP 627 atom OD2 (Table A1 (H-Bonds), ASP 627 OD2): 3.11
- H-bond distance to MASP-2 SER 628 atom O (Table A1 (H-Bonds), SER 628 O): 2.38
- van der Waals contact distance, MASP-2 HIS 483 atom CD2 (Table A2-1): 3.68
- van der Waals contact distance, MASP-2 HIS 483 atom CE1 (Table A2-1): 3.81
- van der Waals contact distance, MASP-2 PHE 529 atom CZ (Table A2-3): 3.88
- van der Waals contact distance, SER 654 O to compound atom (Table A2-12): 3.51
- van der Waals contact distance, TRP 655 CA to compound atom (Table A2-12): 3.68
- van der Waals contact distance, MASP-2 amino acid atom to compound atom (Table A2 section before Table A2-8): 3.84

Compound: Cc1nc(N)ccc1CNC(=O)[C@H](C)NC(=O)[C@H]1C[C@H](Cc2cccc(Cl)c2)CN1.Cl.Cl [1328_2]
- Ligand-pharmacophore element distance, pharmacophore element C2: 0
- Ligand-pharmacophore element distance, pharmacophore element C3: 0.15
- Ligand-pharmacophore element distance, pharmacophore element C4: 1.28
- Ligand-pharmacophore element distance, pharmacophore element C5: 0
- Ligand-pharmacophore element distance, pharmacophore element C6: 0
- Ligand-pharmacophore element distance, pharmacophore element C7: 0
- Ligand-pharmacophore element distance, pharmacophore element CA1: 0.41
- Ligand-pharmacophore element distance, pharmacophore element CA2: 0.43
- Ligand-pharmacophore element distance, pharmacophore element CA3: 0
- Ligand-pharmacophore element distance, pharmacophore element CA4: 0
- Ligand-pharmacophore element distance, pharmacophore element CA5: 0
- Ligand-pharmacophore element distance, pharmacophore element CA6: 0
- d(C3,CA1) [1]: 2.85
- d(CA1,N1)2 [1]: 1.38
- d(CA1,O1) [1]: 4.43
- d(CA1,O2) [1]: 4.01
- d(H4,O1) [1]: 4.38
- d(H4,O2) [1]: 3.84
- d(O1,O2) [1]: 3.08
- d(N2,C4) [2]: 7.87
- d(N2,C4)4 [2]: 7.87
- d(N2,CA2) [2]: 5.92
- d(O2,H3) [2]: 4.54
- d(O2,N2) [2]: 2.75
- a(C3, CA1, O1) (Table A6-1 pharmacophore angle): 150.10
- a(CA1, O1, O2) (Table A6-1 pharmacophore angle): 103.89
- a(O1, O2, H4) (Table A6-1 pharmacophore angle): 136.71
- a(N1, CA1, O1) b) (Table A6-1 pharmacophore angle, Methyl-amino-pyridine compounds): 173.89
- a(O1, O2, H3) (Table A6-2 pharmacophore angle): 149.68
- a(O1, O2, N2) (Table A6-2 pharmacophore angle): 139.05
- a(O2, N2, C4) (Table A6-2 pharmacophore angle): 160.74
- a(O2, N2, C4) 2 (Table A6-2 pharmacophore angle): 109.44
- a(O2, N2, CA2) (Table A6-2 pharmacophore angle): 154.85
- Pharmacophore torsion angle a(C3, CA1, O1, H4) [3]: 21.76
- Pharmacophore torsion angle a(H4, O1, O2, H3) [3]: 51.26
- Pharmacophore torsion angle a(H4, O1, O2, N2) [3]: 134.72
- Pharmacophore torsion angle a(N1, CA1, O1, H4) [3]: −4.36
- Pharmacophore torsion angle a(O1, H4, O2, CA1) [3]: −83.32
- Pharmacophore torsion angle a(O1, O2, N2, CA2) [4]: 132.29
